Test results reported in patent publication US10730889B2, “Amido spirocyclic amide and sulfonamide derivatives” (Forma TM, LLC, priority 2012, dated 2020).
Read-outs that look alike come from different tables or passages of the source.

Experiments:
[1] = tested on: A2780 cells; test: In-vitro cell proliferation assay (SRB, 72 hours); assay type: cell-based; conditions: A2780 cells, 72 hours, SRB, read-out: Cell Proliferation (IC50)
[2] = target: NAMPT (Homo sapiens (Human), UniProt P43490); test: Biochemical inhibition assay (NAMPT enzymatic reaction, NMN quantified by mass spectrometry)
NAMPT, sequence (P43490 whole entry): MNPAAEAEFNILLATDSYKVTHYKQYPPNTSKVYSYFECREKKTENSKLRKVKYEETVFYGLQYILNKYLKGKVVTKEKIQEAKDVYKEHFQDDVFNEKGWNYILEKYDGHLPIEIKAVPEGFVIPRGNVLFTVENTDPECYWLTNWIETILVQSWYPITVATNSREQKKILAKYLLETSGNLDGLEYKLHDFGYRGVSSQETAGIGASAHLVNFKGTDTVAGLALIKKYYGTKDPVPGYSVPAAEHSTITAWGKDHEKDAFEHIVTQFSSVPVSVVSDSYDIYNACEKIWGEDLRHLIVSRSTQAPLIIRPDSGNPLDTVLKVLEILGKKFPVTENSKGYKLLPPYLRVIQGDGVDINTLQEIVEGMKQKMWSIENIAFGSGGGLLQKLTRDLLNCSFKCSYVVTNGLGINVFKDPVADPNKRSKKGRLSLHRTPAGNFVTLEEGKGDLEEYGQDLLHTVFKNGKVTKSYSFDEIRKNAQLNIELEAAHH

Compound | IC50 ([1]; Homo sapiens, A2780, 72 h) [nM] | IC50 [2] [nM] | IC50 [1] [nM]
Cn1nc(C(=O)N2CCC3(CC2)CC3CNC(=O)c2cc3ccncc3o2)cc1C(F)(F)F (stereo not shown) [Example 131, N-[[6-[1-methyl-5-(trifluoromethyl]pyrazole-3-carbonyl]-6-azaspiro[2.5]octan-2-yl]methyl]furo[2,3-c]pyridine-2-carboxamide] | 326 | 356 | 
CN1CCN(C(=O)c2ccc(C(=O)N3CCC4(CC3)CC4CNC(=O)N3Cc4ccncc4C3)cc2)CC1 (stereo not shown) [Example 372, N-[[6-[4-(4-methylpiperazine-1-carbonyl)benzoyl]-6-azaspiro[2.5]octan-2-yl]methyl]-1,3-dihydropyrrolo[3,4-c]pyridine-2-carboxamide] | 27.5 |  | 
CC1(OC(=O)N2CCC3(CC2)CC3CNC(=O)N2Cc3ccncc3C2)CCOC1 (stereo not shown) [Example 375, (3-methyltetrahydrofuran-3-yl) 2-[(1,3-dihydropyrrolo[3,4-c]pyridine-2-carbonylamino)methyl]-6-azaspiro[2.5]octane-6-carboxylate] | 1.11 |  | 
CC(C)(O)COC(=O)N1CCC2(CC1)CC2CNC(=O)N1Cc2ccncc2C1 (stereo not shown) [Example 376, (2-hydroxy-2-methyl-propyl) 2-[(1,3-dihydropyrrolo[3,4-c]pyridine-2-carbonylamino)methyl]-6-azaspiro[2.5]octane-6-carboxylate] | 16.1 |  | 
CC(C)(C)CS(=O)(=O)N1CCC2(CC1)CC2CNC(=O)c1cc2ccncc2o1 (stereo not shown) [Example 378, N-[[6-(2,2-dimethylpropylsulfonyl)-6-azaspiro[2.5]octan-2-yl]methyl]furo[2,3-c]pyridine-2-carboxamide] | 2000 |  | 
CC(C)(C)CS(=O)(=O)N1CCC2(CC1)CC2CNC(=O)c1cc2cnccc2[nH]1 (stereo not shown) [Example 379, N-[[6-(2,2-dimethylpropylsulfonyl)-6-azaspiro[2.5]octan-2-yl]methyl]-1H-pyrrolo[3,2-c]pyridine-2-carboxamide] | 2000 |  | 
CC(C)(C)OC(=O)N1CCC2(CC1)CC2CNC(=O)c1cnn2nccc2c1 (stereo not shown) [Example 383, tert-Butyl 2-[(pyrazolo[1,5-b]pyridazine-5-carbonylamino)methyl]-6-azaspiro[2.5]octane-6-carboxylate] | 2000 | 15.8 | 
Cc1nc(C)c(C(=O)N2CCC3(CC2)CC3CNC(=O)c2cc3ccncc3o2)o1 (stereo not shown) [Example 385, N-[[6-(2,4-dimethyloxazole-5-carbonyl)-6-azaspiro[2.5]octan-2-yl]methyl]furo[2,3-c]pyridine-2-carboxamide] |  |  | 17.1
CC(C)(O)COCC(=O)N1CCC2(CC1)CC2CNC(=O)c1cc2cnccc2[nH]1 (stereo not shown) [Example 387, N-[[6-[2-(2-hydroxy-2-methyl-propoxy)acetyl]-6-azaspiro[2.5]octan-2-yl]methyl]-1H-pyrrolo[3,2-c]pyridine-2-carboxamide] | 535 |  | 
Cc1nc(C(F)(F)F)c(C(=O)N2CCC3(CC2)CC3CNC(=O)N2Cc3ccncc3C2)s1 (stereo not shown) [Example 388, N-[[6-[2-methyl-4-(trifluoromethyl]thiazole-5-carbonyl]-6-azaspiro[2.5]octan-2-yl]methyl]-1,3-dihydropyrrolo[3,4-c]pyridine-2-carboxamide] | 1.26 |  | 
CC1(C)CC1C(=O)N1CCC2(CC1)CC2CNC(=O)N1Cc2ccncc2C1 (stereo not shown) [Example 389, N-[[6-(2,2-dimethylcyclopropanecarbonyl)-6-azaspiro[2.5]octan-2-yl]methyl]-1,3-dihydropyrrolo[3,4-c]pyridine-2-carboxamide] | 0.575 |  | 
CC(C)(C)OC(=O)N1CCC2(CC1)CC2CNC(=O)NCc1ccc2nccn2c1 (stereo not shown) [Example 392, tert-butyl 2-[(imidazo[1,2-a]pyridin-6-ylmethylcarbamoylamino)methyl]-6-azaspiro[2.5]octane-6-carboxylate] | 2000 |  | 
Nc1ccc(CC(=O)N2CCC3(CC2)CC3CNC(=O)N2Cc3ccncc3C2)cn1 (stereo not shown) [Example 394, N-[[6-[2-(6-Amino-3-pyridyl)acetyl]-6-azaspiro[2.5]octan-2-yl]methyl]-1,3-dihydropyrrolo[3,4-c]pyridine-2-carboxamide] | 14.5 |  | 
O=C(NCC1CC12CCN(C(=O)N1CCOCC1)CC2)N1Cc2ccncc2C1 (stereo not shown) [Example 395, N-[[6-(morpholine-4-carbonyl)-6-azaspiro[2.5]octan-2-yl]methyl]-1,3-dihydropyrrolo[3,4-c]pyridine-2-carboxamide] | 24.3 |  | 
CC(C)(O)CCC(=O)N1CCC2(CC1)CC2CNC(=O)c1cc2cnccc2[nH]1 (stereo not shown) [Example 397, N-[[6-(4-hydroxy-4-methyl-pentanoyl)-6-azaspiro[2.5]octan-2-yl]methyl]-1H-pyrrolo[3,2-c]pyridine-2-carboxamide] | 888 |  | 

Next, values leading:

IC50 ([1]; Homo sapiens, A2780, 72 h) [nM] | IC50 [2] [nM] | IC50 [1] [nM] | Compound
0.722 |  |  | O=C(NCC1CC12CCN(C(=O)c1cnccc1C(F)(F)F)CC2)N1Cc2ccncc2C1 (stereo not shown) [Example 398, N-[[6-[4-(trifluoromethyl]pyridine-3-carbonyl]-6-azaspiro[2.5]octan-2-yl]methyl]-1,3-dihydropyrrolo[3,4-c]pyridine-2-carboxamide]
222 |  |  | CC1(O)CC(CC(=O)N2CCC3(CC2)CC3CNC(=O)c2cc3cnccc3[nH]2)C1 (stereo not shown) [Example 400, N-[[6-[2-(3-hydroxy-3-methyl-cyclobutyl)acetyl]-6-azaspiro[2.5]octan-2-yl]methyl]-1H-pyrrolo[3,2-c]pyridine-2-carboxamide]
2000 |  |  | CC(C)(C)OC(=O)N1CCC2(CC1)CC2CNC(=O)c1ccc2nccn2n1 (stereo not shown) [Example 402, tert-butyl 2-[(imidazo[1,2-b]pyridazine-6-carbonylamino)methyl]-6-azaspiro[2.5]octane-6-carboxylate]
2.9 |  |  | CC1(CC(=O)N2CCC3(CC2)CC3CNC(=O)N2Cc3ccncc3C2)CCN(CC(F)(F)F)CC1 (stereo not shown) [Example 403, N-[[6-[2-[4-Methyl-1-(2,2,2-trifluoroethyl)-4-piperidyl]acetyl]-6-azaspiro[2.5]octan-2-yl]methyl]-1,3-dihydropyrrolo[3,4-c]pyridine-2-carboxamide]
2000 |  |  | CC(C)(C)OC(=O)N1CCC2(CC1)CC2CNC(=O)N1Cc2cnc(N)cc2C1 (stereo not shown) [Example 406]
72.6 |  |  | O=C(Cc1cncnc1)N1CCC2(CC1)CC2CNC(=O)N1Cc2ccncc2C1 (stereo not shown) [Example 407, N-[[6-(2-pyrimidin-5-ylacetyl)-6-azaspiro[2.5]octan-2-yl]methyl]-1,3-dihydropyrrolo[3,4-c]pyridine-2-carboxamide]
2000 |  |  | O=C(NCC1CC12CCN(C(=O)c1ccccc1)CC2)c1cc2ccncc2o1 (stereo not shown) [Example 411, N-((6-benzoyl-6-azaspiro[2.5]octan-2-yl)methyl]furo[2,3-c]pyridine-2-carboxamide]
14.2 |  |  | Cc1ncoc1C(=O)N1CCC2(CC1)CC2CNC(=O)N1Cc2ccncc2C1 (stereo not shown) [Example 415, N-[[6-(4-methyloxazole-5-carbonyl)-6-azaspiro[2.5]octan-2-yl]methyl]-1,3-dihydropyrrolo[3,4-c]pyridine-2-carboxamide]
461 |  |  | CC(C)OC(=O)N1CCC2(CC1)CC2CNC(=O)c1cc2ccncc2o1 (stereo not shown) [Example 416, isopropyl 2-[(furo[2,3-c]pyridine-2-carbonylamino)methyl]-6-azaspiro[2.5]octane-6-carboxylate]
830 |  |  | CC1(OC(=O)N2CCC3(CC2)CC3CNC(=O)c2cc3ccncc3o2)COC1 (stereo not shown) [Example 417, (3-methyloxetan-3-yl) 2-[(furo[2,3-c]pyridine-2-carbonylamino)methyl]-6-azaspiro[2.5]octane-6-carboxylate]
 |  | 7.03 | N-[[6-(2,2- dimethylcyclopropanecarbonyl)- 6-azaspiro[2.5]octan-2- yl]methyl]furo[2,3-c]pyndine-2- carboxamide [Example 373]
